From US9624244B2, “Benzo [B] isoxazoloazepine bromodomain inhibitors and uses thereof” (Constellation Pharmaceuticals, Inc., priority 2012, dated 2017)

Tests used:
[1] = tested on: IL-6 secretion, THP-1 cells; assay: Cell-based IL-6 quantification assay (ELISA, Mesoscale) in LPS-stimulated THP-1 cells; conditions: Homo sapiens, LPS 4 μg/mL, 16 h, ELISA value/CellTiter-Glo ratio
Procedure: Cell-Based IL-6 Quantification Assay (ELISA, Mesoscale Assay):
100,000 THP-1 cells were seeded in RPMI1640-10% FBS in 96-well plates. LPS (E. Coli Invitrogen) in RPMI-10% FBS at a final concentration of 4 μg/mL was added to the wells and the cells are then incubated in the presence of various concentrations of compounds for 16 h. Plates are spun ([…], 5 min), an aliquot of 25 uL supernatant is transferred in to an ELISA plate (Mesoscale technology, MSD) and the detection of IL-6 is performed using manufacturer's instructions. The amount of cells in each well is assessed using CellTiter-Glo® (Promega). The ratio of ELISA value/CellTiter-Glo value is used to calculate the percent of inhibition of IL-6 secretion.

[2] = tested on: MYC mRNA, MV4:11 (AML) or Raji (Burkitt's lymphoma) cells; assay: cMyc RNA quantification assay (QuantiGene); format: cell-based; conditions: MV4:11 or Raji cells, 4 h, MYC mRNA normalized to DMSO
Procedure: cMyc RNA Quantification Assay (QuantiGene® Assay):
MV4:11 (AML) or Raji (Burkitt's lymphoma) cells were seeded in a 96-well plate and incubated in the presence of various concentrations of compounds for 4 h. Relative mRNA levels were quantitated by using QuantiGene 2.0 assay (Affymetrix) according to the manufacturer's recommendation. Signals were detected by using an Envision plate reader (Perkin-Elmer). Biological duplicates were averaged and normalized to vehicle (DMSO) control to calculate percent MYC mRNA levels.

[3] = target: T1, BRD4(BD1) (Homo sapiens, UniProt O60885); assay: BRD4 AlphaLisa binding assay; conditions: BRD4(BD1) 30 nM, biotinylated H4-tetraacetyl peptide 200 nM, read-out: AS IC50
T1 construct: His; made in house
Procedure: IC50 Measurements for Inhibitors Using BRD4 AlphaLisa Binding Assay
Specifically, in a 384 well ProxiPlate BRD4(BD1) (30 nM final) was combined with peptide (200 nM final) in 40 mM HEPES (pH 7.0), 40 mM NaCl, 1 mM DTT, 0.01% (w/v) BSA, and 0.008% (w/v) Brij-35 either in the presence of DMSO (final 1.2% DMSO) or compound dilution series in DMSO. After 20 minute incubation at room temperature Alpha streptavidin donor beads and AlphaLisa anti-Flag acceptor beads were added to a final concentration of 10 ug/mL each. After three hours equilibration plates were read on an Envision instrument and IC50s calculated using a four parameter non-linear curve fit.

SMILES | IC50 [1] [nM] | IC50 [3] [nM] | EC50 [2] [nM]
Cc1noc2c1-c1ccccc1NC(C)C2 (stereo not drawn) [Compound 144, 1,5-dimethyl-5,6-dihydro-4H-benzo[b]isoxazolo[4,5-d]azepine] | > 15000 | 24000 | –
Cc1noc2c1-c1ccc(-c3cnn(CC(N)=O)c3)cc1N(c1ccc(C#N)cc1)CC2C (stereo not drawn) [Compound 134, 2-(4-(6-(4-cyanophenyl)-1,4-dimethyl-5,6-dihydro-4H-benzo[b]isoxazolo[4,5-d]azepin-8-yl)-1H-pyrazol-1-yl)acetamide] | 70 | 30 | 120
Cc1noc2c1-c1ccccc1NC(=O)C2N (stereo not drawn) [Compound 142, 4-amino-1-methyl-4H-benzo[b]isoxazolo[4,5-d]azepin-5(6H)-one] | > 1000 | > 80000 | –
CCCN1CCc2onc(C)c2-c2ccccc21 [Compound 129, 1-methyl-6-propyl-5,6-dihydro-4H-benzo[b]isoxazolo[4,5-d]azepine] | > 15000 | 7900 | –
Cc1cc(C#N)ccc1N1CCc2onc(C)c2-c2ccccc21 [Compound 107] | > 15000 | > 4000 | –
Cc1noc2c1-c1ccccc1N(C(=O)c1ccccc1)CC2 [Compound 132, (1-methyl-4H-benzo[b]isoxazolo[4,5-d]azepin-6(5H)-yl)(phenyl)methanone] | 3110 | 8140 | –
Cc1noc2c1-c1ccccc1N(C)CC2 [Compound 127, 1,6-dimethyl-5,6-dihydro-4H-benzo[b]isoxazolo[4,5-d]azepine] | > 15000 | 9870 | –
Cc1noc2c1-c1cc(-c3cncnc3)ccc1N(c1ccc(C#N)cc1)CC2 [Compound 112] | > 15000 | 50000 | –
Cc1noc2c1-c1ccccc1NCC2 [Compound 100, 1-methyl-5,6-dihydro-4H-benzo[b]isoxazolo[4,5-d]azepine] | > 15000 | 29800 | –
Cc1onc2c1-c1ccccc1NCC2 [Compound 143, 1-methyl-5,6-dihydro-4H-benzo[b]isoxazolo[4,3-d]azepine] | – | 39600 | –
Cc1noc2c1-c1ccccc1N(C(C)C)CC2 [Compound 128, 6-isopropyl-1-methyl-5,6-dihydro-4H-benzo[b]isoxazolo[4,5-d]azepine] | > 15000 | 8100 | –

Continued, in another order:

IC50 [1] [nM] | IC50 [3] [nM] | SMILES | EC50 [2] [nM]
120 | 40 | CCC1CN(c2ccc(C#N)cc2)c2cc(-c3ccc(=O)n(C)c3)ccc2-c2c(C)noc21 (stereo not drawn) [Compound 122] | 240
> 1000 | 240 | Cc1noc2c1-c1ccc(-c3cnn(C)c3)cc1N(c1ccc(S(C)(=O)=O)cc1)CC2 [Compound 120] | 1460
380 | 60 | Cc1noc2c1-c1ccc(-c3ccc(N)nc3)cc1N(c1ccc(C#N)cc1)CC2 [Compound 116] | 550
– | 570 | Cc1noc2c1-c1cc(C#N)ccc1N(c1ccc(C#N)cc1)CC2 [Compound 108] | –
– | 750 | Cc1noc2c1-c1ccccc1N(c1ccc(C#N)cc1)CC21CC1 [Compound 104] | –
4570 | 430 | Cc1noc2c1-c1ccccc1N(c1ccc(C#N)cc1)CC2 [Compound 102] | –
> 1000 | 500 | Cc1noc2c1-c1ccc(-c3cnn(C)c3)cc1N(c1ccc(C#N)cc1)CC2CC#N (stereo not drawn) [Compound 140, 4-(4-(cyanomethyl)-1-methyl-8-(1-methyl-1H-pyrazol-4-yl)-4H-benzo[b]isoxazolo[4,5-d]azepin-6(5H)-yl)benzonitrile] | –
4390 | 560 | Cc1noc2c1-c1ccccc1N(c1ccc(C#N)cc1)C(C)C2 (stereo not drawn) [Compound 141, 4-(1,5-dimethyl-4H-benzo[b]isoxazolo[4,5-d]azepin-6(5H)-yl)benzonitrile] | –
– | 3380 | Cc1noc2c1-c1ccccc1N(c1ccc(Cl)cc1)CC21CC1 [Compound 105] | –
11900 | 2680 | Cc1noc2c1-c1ccccc1N(c1ccc(Cl)cc1)CC2 [Compound 101] | –
